Test results reported in PMC10329798 (Virology Journal, 2023).
Read-outs that look alike come from different tables or passages of the source.

How the values were obtained:
SARS-CoV E protein (1-E) = conditions: 1-E protein, cell viability assay; read-out: IC50, inhibition data from published 1-E protein; cited from earlier work
[1] = biological target: T1, SARS-CoV-2 E protein (2-E) (Severe acute respiratory syndrome coronavirus 2, UniProt P0DTC4); assay: cell-based; format: biochemical
[2] = biological target: T1, SARS-CoV-2 E protein (2-E); assay: cell-based
SARS-CoV-2 = conditions: in vitro, Vero-h/SLAM cells; cited from earlier work
[3] = read-out: IC50, patch-clamp electrophysiology, 2-E
[4] = read-out: IC50, cell viability assay, 2-E protein

T1 sequence (P0DTC4 whole entry): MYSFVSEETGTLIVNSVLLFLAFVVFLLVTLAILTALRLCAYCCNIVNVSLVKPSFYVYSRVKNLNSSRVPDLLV

For `NC(N)=NC(=O)c1nc(Cl)c(N2CCCCCC2)nc1N` [HMA, 5-(N,N-hexamethylene)amiloride], the “Concentration with cytotoxic effects / onset of cell toxicity” value (HEK293 cells) is listed as > 10 µM, the IC50 (SARS-CoV E protein (1-E)) is listed as 2600 ± 400 nM and the IC50 [1, 3] is listed as 1.9 ± 0.3 nM. The IC50 [2, 4] was 1500 ± 300 nM.
For `NC12CC3CC(CC(C3)C1)C2` [amantadine], the “Concentration with cytotoxic effects / onset of cell toxicity” value (HEK293 cells) is listed as “not cytotoxic”, the IC50 (SARS-CoV E protein (1-E)) is listed as 77000 ± 13000 nM and the IC50 [1, 3] is listed as 24.1 ± 6.5 nM. For the same molecule, the IC50 [2, 4] was 89000 ± 27000 nM.
With `CCC(C)C1OC2(CCC1C)CC1CC(CC=C(C)C(O)C(C)C=CC=C3COC4C(O)C(C)=CC(C(=O)O1)C34O)O2` (stereo not drawn) [ivermectin aglycon] the IC50 [1, 3] was 5 ± 1.3 nM.
In the case of `CC1=C[C@H]2C(=O)O[C@H]3C[C@@H](C/C=C(\C)C[C@@H](C)/C=C/C=C4\CO[C@H]([C@@H]1O)[C@@]42O)O[C@@]1(CC[C@H](C)[C@@H](C)O1)C3` [milbemycin], the “Concentration with cytotoxic effects / onset of cell toxicity” value (HEK293 cells; human) is reported as ~ 10 µM and the IC50 [1] is reported as 2.21 ± 0.65 nM.
In the case of `CC1=C[C@H]2C(=O)O[C@H]3C[C@@H](C/C=C(\C)C[C@@H](C)/C=C/C=C4\CO[C@H]([C@@H]1O)[C@@]42O)O[C@]1(C3)C[C@H](O)[C@H](C)[C@@H](/C(C)=C/C(C)C)O1` [nemadectin], the “Concentration with cytotoxic effects / onset of cell toxicity” value (HEK293 cells; human) is reported as 2 µM, the “IC50, patch-clamp electrophysiology, 2-E” value [1] is reported as “not active” and the “Inhibition of 2-E protein-mediated currents” value ([1]; any of the tested concentrations) is reported as “did not observe inhibition”.
In the case of `CC(N)C12CC3CC(CC(C3)C1)C2` (stereo not drawn) [rimantadine], the “Concentration with cytotoxic effects / onset of cell toxicity” value (HEK293 cells) is given as “not cytotoxic”, the IC50 (SARS-CoV E protein (1-E)) is given as 10900 ± 3300 nM and the IC50 [1] is given as 3.6 ± 0.6 nM. It also gave an IC50 [2] of 8900 ± 2200 nM.
For ivermectin, the “Reduction in SARS-CoV-2 viral RNA” value (SARS-CoV-2) is listed as 5000 fold, the IC50 [1, 3] is listed as 0.88 ± 0.1 nM and the “Inhibition of the 2-E protein in the cell viability assay” value [2] is listed as “showed inhibiting effects”.
